Experiments:
[1] = target: dipeptidyl peptidase (DP IV) (UniProt P27487); assay: Determination of IC50 against DP IV (hydrolysis of Gly-Pro-pNA); format: biochemical, porcine kidney or recombinant human; conditions: compounds obtained by preparative synthesis
How it was run: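 Porcine kidney or recombinant human DP IV (about 40–50 μU/ml) in HEPES pH 7.6 (I=0.32) with Gly-Pro-pNA at room temperature, 5% DMSO, 11 twofold dilutions from 100 μM final. pNA release at 405 nm over ~18 min; slopes give residual activity versus solvent, IC50 by 4-parameter fit.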

[2] = system: liver cell carcinoma cell line Hep-G2; assay: Cytotoxicity screening and LD50 determination on Hep-G2 (LDH, CytoTox-One); format: cell-based; conditions: for Cytotox 100 μM (%) HEPG2 / Viability 100 μM (%) HEP-G2: 24 h; for Cytotox 100 μM (%) HEPG2: LDH activity in cell culture media, lysed untreated cells = 100%; for Viability 100 μM (%) HEP-G2: LDH of lysed cells, untreated control = 100%; for LD50 Viability HEP-G2 / LD50 cytotox HEP-G2: 8 serial dilutions, highest concentration 1 mM; for Cytotox 100 μM (%) HEPG2 / Viability 100 μM (%) HEP-G2 / Observed cytotox: 100 μM; for Observed cytotox: Hep-G2, observation of the cells
How it was run: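 Hep-G2 cells (50 000/well) precultured 24 h, then compound in DMSO (final 1%) added for 24 h. Screen at 100 μM, 2 μM, 40 nM in triplicate. LDH in medium gave cytotoxicity (untreated 0%, lysed 100%); LDH of lysed cells gave viability. LD50 from 8 serial dilutions, top 1 mM.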

Compound | IC50 [1] | Cytotox 100 μM (%) HEPG2 [2] | Viability 100 μM (%) HEP-G2 [2] | LD50 Viability HEP-G2 [2] | LD50 cytotox HEP-G2 [2] | Observed cytotox [2]
NCc1c(-c2ccc(Cl)cc2Cl)ncn1Cc1cccnc1 [Example 121b, (4-(2,4-dichlorophenyl)-1-((pyridin-3-yl)methyl)-1H-imidazol-5-yl)methanamine] | 83 nM | 0% | 104.0% | 1.05 mM | 0.92 mM | 
NCc1c(-c2ccc(Cl)cc2Cl)ncn1Cc1ccsc1 [Example 130b, (4-(2,4-dichlorophenyl)-1-((thiophen-3-yl)methyl)-1H-imidazol-5-yl)methanamine] | 62 nM |  |  | 0.24 mM | 0.21 mM | 
NCc1c(-c2ccc(Cl)cc2Cl)ncn1Cc1ccccc1 [Example 24b, (1-benzyl-4-(2,4-dichlorophenyl)-1H-imidazol-5-yl)methanamine] | 123 nM | 5.9% | 119.2% | 0.20 mM | 0.18 mM | 10% spheric
NCc1c(-c2ccc(Cl)cc2Cl)ncn1Cc1ccccn1 [Example 39b] | 59 nM | 3.9% | 115.7% | 0.80 mM | 0.74 mM | 20% spheric

From patent publication US7728146B2, “Enzyme inhibitors” (Probiodrug AG, priority 2006, dated 2010)
